Data: patent publication US20180333382A1, “PHARMACEUTICAL COMPOSITIONS COMPRISING DGLA AND USE OF SAME” (DS Biopharma Limited, priority 2017, published 2018)
Where two headings read alike, the source gives them in different places.

Assay: Phase one study part 1: single dose plasma PK of free and total DGLA, fasted
Format: in vivo, human
Conditions: for half-life / Tmax: both sexes, human, plasma, oral; for half-life: read-out: t1/2, median, free DGLA, baseline-corrected plasma (converted)
Experimental: A single-center, double-blind, randomized, placebo-controlled, two part Phase one study was performed in healthy male and female subjects aged 18 to 45 years inclusive. The primary objective of this study was to assess the safety and plasma pharmacokinetics (PK) of orally administered single doses and orally administered multiple doses of DS107G capsules (once daily for 28 days) in healthy subjects.
Subjects were randomly assigned in a 3:1 ratio of DG107G to placebo by block randomization. Single dose part one of the study comprised three cohorts of eight subjects each, with the addition of Cohort four based on evaluation of the safety data of Cohort three by the Safety Monitoring Committee (SMC). A single oral dose of DS107G or matching placebo was administered to fasted subjects in Cohorts one to three (500, 1000, and 2000 mg, respectively) in parallel; subjects in Cohort four were administered a dose of 4000 mg following completion of Cohort three. Subjects in Cohort two received 1000 mg or matching placebo in the fed state at 14 days after the first dose.
Safety assessments were monitored throughout the study.
In Part one of the study, subjects in Cohorts one to three were administered a single dose of study drug (either 500-, 1000-, or 2000-mg as 500-mg DS107G capsules or matching placebo capsules) in parallel on study Day 1 after at least an 8-hour fast, according to Table 20. Cohort 4 was initiated following the review of safety data from Cohort 3 by the SMC.
Analysis of populations included the following: • The Intention-to-Treat (ITT) population consists of all randomized subjects who had been administered at least 1 dose of study drug. • The Per Protocol (PP) population consists of all subjects in the ITT population who had no major protocol violation, as defined in the SAP. • The PK population contains all subjects included in the PP population who had evaluable PK data derived from plasma. A plasma concentration observation was considered a valid, evaluable measurement if the following data were available: study identification number, randomization number, date and time of sampling, dose and concentration. A series of such measurements from the same sample were considered complete if each protocol prescribed concentration was evaluable. Plasma PK data were evaluable by definition if the data contained a complete series of observations. Any missing plasma PK observation would result in incomplete PK data, thus a subject with any missing plasma PK observation was excluded from the PK population. Subjects randomized to placebo were also excluded from the PK population.

## CCCCC/C=C\C/C=C\C/C=C\CCCCCCC(=O)O [DS107G, Dihomo gamma linolenic acid]
500 mg single dose
  AUC0-24, mean, free DGLA, baseline-corrected plasma: 2728.1 ng·h/mL
  AUC0-24/Dose, mean, free DGLA, baseline-corrected plasma: 5.46 h/kL
  AUC0-24/Dose, mean, total DGLA, baseline-corrected plasma: 79.11 h/kL
  AUC0-inf, mean, free DGLA, baseline-corrected plasma: 21483.3 ng·h/mL
  AUC0-inf/Dose, mean, free DGLA, baseline-corrected plasma: 42.97 h/kL
  AUC0-inf/Dose, mean, total DGLA, baseline-corrected plasma: 8831.93 h/kL
  CL/F, mean, free DGLA, baseline-corrected plasma: 0.0306 kL/h
  Cmax, mean, free DGLA, baseline-corrected plasma: 934.6 ng/mL
  Cmax/Dose, mean, free DGLA, baseline-corrected plasma: 1.869 kL⁻¹
  Cmax/Dose, mean, total DGLA, baseline-corrected plasma: 14.400 kL⁻¹
  λz, mean, free DGLA, baseline-corrected plasma: 0.0035 h⁻¹
  λz, mean, total DGLA, baseline-corrected plasma: 0.0013 h⁻¹
  half-life: 206 h
1000 mg single dose
  AUC0-24, mean, free DGLA, baseline-corrected plasma: 3998.5 ng·h/mL
  AUC0-24/Dose, mean, free DGLA, baseline-corrected plasma: 4.00 h/kL
  AUC0-24/Dose, mean, total DGLA, baseline-corrected plasma: 215.37 h/kL
  AUC0-inf, mean, free DGLA, baseline-corrected plasma: 218955.6 ng·h/mL
  AUC0-inf/Dose, mean, free DGLA, baseline-corrected plasma: 218.96 h/kL
  AUC0-inf/Dose, mean, total DGLA, baseline-corrected plasma: 4031.41 h/kL
  CL/F, mean, free DGLA, baseline-corrected plasma: 0.1866 kL/h
  Cmax, mean, free DGLA, baseline-corrected plasma: 1602.8 ng/mL
  Cmax/Dose, mean, free DGLA, baseline-corrected plasma: 1.603 kL⁻¹
  Cmax/Dose, mean, total DGLA, baseline-corrected plasma: 15.750 kL⁻¹
  λz, mean, free DGLA, baseline-corrected plasma: 0.0487 h⁻¹
  λz, mean, total DGLA, baseline-corrected plasma: 0.0136 h⁻¹
  half-life: 28.3 h
2000 mg single dose
  AUC0-24, mean, free DGLA, baseline-corrected plasma: 6429.0 ng·h/mL
  AUC0-24/Dose, mean, free DGLA, baseline-corrected plasma: 3.21 h/kL
  AUC0-24/Dose, mean, total DGLA, baseline-corrected plasma: 105.25 h/kL
  AUC0-inf, mean, free DGLA, baseline-corrected plasma: 26877.0 ng·h/mL
  AUC0-inf/Dose, mean, free DGLA, baseline-corrected plasma: 13.44 h/kL
  AUC0-inf/Dose, mean, total DGLA, baseline-corrected plasma: 1138.25 h/kL
  CL/F, mean, free DGLA, baseline-corrected plasma: 0.1339 kL/h
  Cmax, mean, free DGLA, baseline-corrected plasma: 2074.0 ng/mL
  Cmax/Dose, mean, free DGLA, baseline-corrected plasma: 1.037 kL⁻¹
  Cmax/Dose, mean, total DGLA, baseline-corrected plasma: 8.867 kL⁻¹
  λz, mean, free DGLA, baseline-corrected plasma: 0.0200 h⁻¹
  λz, mean, total DGLA, baseline-corrected plasma: 0.0084 h⁻¹
  half-life: 57.3 h
4000 mg single dose
  AUC0-24, mean, free DGLA, baseline-corrected plasma: 9436.8 ng·h/mL
  AUC0-24/Dose, mean, free DGLA, baseline-corrected plasma: 2.36 h/kL
  AUC0-24/Dose, mean, total DGLA, baseline-corrected plasma: 109.44 h/kL
  AUC0-inf, mean, free DGLA, baseline-corrected plasma: 17113.6 ng·h/mL
  AUC0-inf/Dose, mean, free DGLA, baseline-corrected plasma: 4.28 h/kL
  AUC0-inf/Dose, mean, total DGLA, baseline-corrected plasma: 1493.38 h/kL
  CL/F, mean, free DGLA, baseline-corrected plasma: 0.2420 kL/h
  Cmax, mean, free DGLA, baseline-corrected plasma: 3021.8 ng/mL
  Cmax/Dose, mean, free DGLA, baseline-corrected plasma: 0.755 kL⁻¹
  Cmax/Dose, mean, total DGLA, baseline-corrected plasma: 6.471 kL⁻¹
  λz, mean, free DGLA, baseline-corrected plasma: 0.0603 h⁻¹
  λz, mean, total DGLA, baseline-corrected plasma: 0.0102 h⁻¹
  half-life: 67.5 h
500 mg single dose, read-out: tmax, median, free DGLA, baseline-corrected plasma
  Tmax: 4 h
1000 mg single dose, read-out: tmax, median, free DGLA, baseline-corrected plasma
  Tmax: 4 h
2000 mg single dose, read-out: tmax, median, free DGLA, baseline-corrected plasma
  Tmax: 4 h
4000 mg single dose, read-out: tmax, median, free DGLA, baseline-corrected plasma
  Tmax: 4 h
Single dose 500-4000 mg, read-out: median time to maximum concentration (Tmax), free DGLA
  Tmax: 4 h
Single dose 500-4000 mg
  dose dependence of mean baseline-corrected Cmax and AUC0-24, free and total DGLA: increased in a linear manner
